From patent US9309179B2 (FAB PHARMA S.A.S., priority 2006, dated 2016) come the findings set out here.

Converted amounts (≈) assume the structure as drawn. Read-outs that look alike come from different tables or passages of the source.

The target of experiment [1] is T1, recombinant E. coli FabI enzyme (Escherichia coli, UniProt P0AEK4).
T1 construct: 6-His (C); made in house; host or cells: prokaryotic expression vector
Nature of the experiment: FabI inhibition, fluorescence-based NADH assay. It is filed as biochemical. The protocol: Compound inhibitory activity of FabI enzyme is measured in vitro by the IC50 determination using a fluorescent based assay.
The protein FabI from E. coli is prepared and purified using standard methods for recombinant protein expression after cloning of the gene in a prokaryotic expression vector.
The biochemical activity of the FabI enzyme is assessed using the following method.
The assay buffer “AB” contains 50 mM Hepes pH7.5, 100 μM Dithiothreitol, 0.006% Triton-X100. The following components are added in a black polystyrene Costar plate up to a final volume of 55 μL: 1.5 μL DMSO, or inhibitor dissolved in DMSO and 53.5 μL of a FabI/NADH/NAD+ mixture in AB. After 60 min of pre-incubation at room temperature, the reaction is started by addition of 5 μL of Crotonoyl-CoA to a final volume of 60 μL. This reaction mixture is then composed of 40 nM FabI (produced in house from E. coli, C-terminal 6-His tagged), 20 μM NADH (Biochemika), 10 μM NAD+ (Biochemika), 50 μM Crotonoyl-CoA (Biochemika) and compound at defined concentration. Fluorescence intensity of NADH (lex=360 nm, lem=520 nm) is measured immediately after Crotonoyl-CoA addition, and 2 hours later by a Fluostar Optima (BMG). Enzyme activity is proportional to the signal decrease from which inhibition percentages are derived. For IC50 determinations, the inhibitor is tested at 6 to 10 different concentrations, and the related inhibitions are fitted to a classical langmuir equilibrium model using XLFIT (IDBS).
In Vitro Inhibition of Recombinant E. coli FabI Enzyme by Selected Compounds of Formula (I).

Another experiment relates to E. coli CIP 76.24. The experiment is described as follows: MIC, broth microdilution. The settings on record: Escherichia coli, CIP76; broth microdilution, 37° C., 20 h; read-out: MIC E. coli CIP 76.24. It is filed as cell-based. The procedure: (§1) The compounds of the present invention are useful antibacterial agents having a selective spectrum of activity in vitro against standard bacterial strains which are used to screen for activity against pathogenic bacteria. […] The activity is presented as Minimum Inhibitory Concentration (MIC) expressed in μg/ml.
(§2) Whole-cell antimicrobial activity was determined by broth microdilution method in microtiterplates. The compound was tested in serial 4-fold dilutions ranging from 0.06 to 64 mcg/mL. Test organisms were selected from the following laboratory strains: Staphylococcus aureus CIP 76.25, Staphylococcus aureus BAA39 MDR, Staphylococcus aureus NEM 14157 PeniR, Staphylococcus aureus CIP 54.146, Escherichia coli CIP 76.24. Bacteria were tested in Tryptic Soy (TS) or Mueller Hinton (MH) broth using an inoculum of 10^4 to 10^6 UFC/mL incubated at 37° C. for 20 h.
(§3) The minimum inhibitory concentration (MIC) was determined as the lowest concentration of compound at which no visible bacteria growth is observed (90% inhibition of absorbance of at […].)

For a further experiment, the system named is S. aureus BAA39MDR. The experiment is described as follows: MIC, broth microdilution. It is filed as cell-based. The settings on record: Staphylococcus aureus, broth microdilution, 37° C., 20 h, read-out: MIC S. aureus BAA39MDR. The protocol:
as §1, §2, §3

In a further experiment the test system is S. aureus CIP 76.25. The experiment is described as follows: MIC, broth microdilution. It is filed as cell-based. The settings on record: Staphylococcus aureus, CIP76; broth microdilution, 37° C., 20 h; read-out: MIC S. aureus CIP 76.25. The protocol:
as §1, §2, §3

The subject of a further experiment is S. aureus NEM14157. Nature of the experiment: MIC, broth microdilution. The following applies: Staphylococcus aureus, NEM14157; broth microdilution, 37° C., 20 h; read-out: MIC S. aureus NEM14157. The format is cell-based. The procedure: as §1, §2, §3
The subject of another experiment is S. aureus 1651 LRSA*. Nature of the experiment: MIC against resistant strains of S. aureus. The format is cell-based. The following applies: Staphylococcus aureus, read-out: MIC S. aureus 1651 LRSA*. The protocol: as §2, §3
(§4) In Vitro Activities Against Resistant Stains of S. aureus

For a further experiment, the system named is S. aureus 1652 LRSA. Nature of the experiment: MIC against resistant strains of S. aureus. It is filed as cell-based. The following applies: Staphylococcus aureus, read-out: MIC S. aureus 1652 LRSA. The procedure: as §2, §3, §4
The subject of another experiment is S. aureus 2012 VISA. Nature of the experiment: MIC against resistant strains of S. aureus. The following applies: Staphylococcus aureus, read-out: MIC S. aureus 2012 VISA. It is filed as cell-based. The procedure:
as §2, §3, §4

A further experiment relates to S. aureus 2018 VISA*. Nature of the experiment: MIC against resistant strains of S. aureus. The format is cell-based. The following applies: Staphylococcus aureus, read-out: MIC S. aureus 2018 VISA*. The protocol: as §2, §3, §4
The next experiment relates to S. aureus MRSA*. The experiment is described as follows: MIC against resistant strains of S. aureus. It is filed as cell-based. The following applies: Staphylococcus aureus, read-out: MIC S. aureus MRSA*. The procedure:
as §2, §3, §4

Another experiment has as its system S. aureus USA300 MRSA*. Nature of the experiment: MIC against resistant strains of S. aureus. The following applies: Staphylococcus aureus, read-out: MIC S. aureus USA300 MRSA*. It is filed as cell-based.
Where [2] appears, read: Methicillin Resistant S. aureus.
Where [3] appears, read: recombinant E. coli FabI 40 nM, 60 min pre-incubation, NADH fluorescence, read-out: IC50.

T1 sequence (P0AEK4 whole entry): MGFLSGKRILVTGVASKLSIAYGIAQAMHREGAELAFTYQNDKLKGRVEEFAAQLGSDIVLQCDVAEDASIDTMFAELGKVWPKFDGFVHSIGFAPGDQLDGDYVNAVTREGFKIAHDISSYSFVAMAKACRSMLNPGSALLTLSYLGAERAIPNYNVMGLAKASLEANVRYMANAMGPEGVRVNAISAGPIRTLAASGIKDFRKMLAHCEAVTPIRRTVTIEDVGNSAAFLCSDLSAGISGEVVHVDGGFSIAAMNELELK

Take `CCc1ccc(Oc2ccc(S(C)(=O)=O)cc2F)c(O)c1` [Example 64, 5-ethyl-2-[2-fluoro-4-(methylsulfonyl)phenoxy]phenol]: the IC50 in [1] worked out at 130 nM. Moreover, the MIC in the experiment with E. coli CIP 76.24 was found to be 1 µg/mL (≈ 3.22 µM); with S. aureus BAA39MDR it was 0.062 µg/mL (≈ 0.2 µM); with S. aureus CIP 76.25, 0.25 µg/mL (≈ 0.806 µM); in the experiment with S. aureus NEM14157, 0.062 µg/mL (≈ 0.2 µM).

For `CCCc1ccc(Oc2cc(F)nc(F)c2)c(O)c1` [Example 25B, 2-[(2,6-difluoropyridin-4-yl)oxy]-5-propylphenol], in experiment [1], the half-inhibitory concentration (IC50) is 570 nM. Further, the MIC in the experiment with E. coli CIP 76.24 was 4 µg/mL (≈ 15.1 µM); in the experiment with S. aureus BAA39MDR, 0.062 µg/mL (≈ 0.234 µM); in the experiment with S. aureus CIP 76.25, 0.062 µg/mL (≈ 0.234 µM); in the experiment with S. aureus NEM14157, 0.062 µg/mL (≈ 0.234 µM).

In the case of `CCc1ccc(Oc2ccc(C(C)=O)cc2F)c(O)c1` [Example 29, 1-[4-(4-ethyl-2-hydroxyphenoxy)-3-fluorophenyl]ethanone], the IC50 in experiment [1] is 150 nM. In addition, the MIC in the experiment with E. coli CIP 76.24 stood at 1 µg/mL (≈ 3.65 µM); in the experiment with S. aureus BAA39MDR, 0.062 µg/mL (≈ 0.226 µM); with S. aureus CIP 76.25, 0.062 µg/mL (≈ 0.226 µM); in the experiment with S. aureus NEM14157, 0.062 µg/mL (≈ 0.226 µM).

For the molecule `CCc1ccc(Oc2ccc(NCCCO)cc2F)c(O)c1` [Example 48, 5-Ethyl-2-[2-fluoro-4-(3-hydroxy-propylamino)-phenoxy]-phenol], the minimal inhibitory concentration (MIC) with E. coli CIP 76.24 came to 4 µg/mL (≈ 13.1 µM); in the experiment with S. aureus CIP 76.25, 0.062 µg/mL (≈ 0.203 µM); in the experiment with S. aureus 1651 LRSA* (Linezolid resistant S. aureus), 0.12 µg/mL (≈ 0.393 µM); in the experiment on S. aureus 1652 LRSA (Linezolid resistant S. aureus), 0.5 µg/mL (≈ 1.64 µM); in the experiment with S. aureus 2012 VISA (VISA strain) it was 0.12 µg/mL (≈ 0.393 µM); with S. aureus 2018 VISA* (VISA strain) it was 0.25 µg/mL (≈ 0.819 µM). Also, the MIC worked out at 0.06 µg/mL (≈ 0.196 µM) with S. aureus MRSA* (setting [2]) and 0.5 µg/mL (≈ 1.64 µM) in the experiment on S. aureus USA300 MRSA* (setting [2]).

Turning to `CCCc1ccc(Oc2ccc(OC)cc2)c(O)c1` [Example 16, 2-(4-methoxyphenoxy)-5-propylphenol], the concentration for half-maximal inhibition (IC50) in experiment [1] was found to be 510 nM. The MIC was 4 µg/mL (≈ 15.5 µM) in the experiment with E. coli CIP 76.24, 0.25 µg/mL (≈ 0.968 µM) with S. aureus BAA39MDR, 0.25 µg/mL (≈ 0.968 µM) with S. aureus CIP 76.25 and 0.25 µg/mL (≈ 0.968 µM) with S. aureus NEM14157.

Take `CCCNS(=O)(=O)c1ccc(Oc2ccc(CC)cc2O)c(F)c1` [Example 71, 4-(4-ethyl-2-hydroxyphenoxy)-3-fluoro-N-propyl benzenesulfonamide]: the concentration for half-maximal inhibition (IC50) in experiment [1] worked out at 330 nM. Further, the MIC with E. coli CIP 76.24 is 4 µg/mL (≈ 11.3 µM); with S. aureus BAA39MDR, 0.25 µg/mL (≈ 0.707 µM); with S. aureus CIP 76.25, < 0.062 µg/mL; with S. aureus NEM14157, 0.062 µg/mL (≈ 0.175 µM).

For `CCc1cc(O)c(Oc2cccnc2N)cc1F` [Example 84, 2-(2-aminopyridin-3yloxy)-5-ethyl-4-fluorophenol], in experiment [1], the IC50 turned out to be 100 nM. Further, the MIC with E. coli CIP 76.24, in the experiment with S. aureus BAA39MDR, with S. aureus CIP 76.25 and with S. aureus NEM14157 was 0.25 µg/mL (≈ 1.01 µM) each time.

Turning to `CCCc1ccc(Oc2cccc(F)n2)c(O)c1` [Example 5, 2-[(6-fluoropyridin-2-yl)oxy]-5-propylphenol], in experiment [1] (setting [3]), the IC50 amounted to 970 nM. The MIC in the experiment with E. coli CIP 76.24 is 4 µg/mL (≈ 16.2 µM); with S. aureus BAA39MDR it was 0.25 µg/mL (≈ 1.01 µM); in the experiment on S. aureus CIP 76.25, 0.25 µg/mL (≈ 1.01 µM); with S. aureus NEM14157, 0.25 µg/mL (≈ 1.01 µM).

With `Oc1cc(CC(F)(F)F)ccc1Oc1cccc(F)n1` [Example 27, 2-[(6-fluoropyridin-2-yl)oxy]-5-(2,2,2-trifluoroethyl)phenol], the IC50 in experiment [1] (setting [3]) turned out to be 470 nM. Moreover, the MIC worked out at 4 µg/mL (≈ 13.9 µM) with E. coli CIP 76.24, 0.25 µg/mL (≈ 0.87 µM) in the experiment with S. aureus BAA39MDR, 0.25 µg/mL (≈ 0.87 µM) in the experiment on S. aureus CIP 76.25 and 0.25 µg/mL (≈ 0.87 µM) in the experiment on S. aureus NEM14157.

As for `CCc1cc(O)c(Oc2cccnc2F)cc1F` [Example 87, 5-Ethyl-4-fluoro-2-(2-fluoropyridin-3yloxy)phenol], in [1], the IC50 was 31 nM. Moreover, the MIC in the experiment on E. coli CIP 76.24 is 0.25 µg/mL (≈ 0.995 µM); in the experiment on S. aureus BAA39MDR, 0.062 µg/mL (≈ 0.247 µM); in the experiment on S. aureus CIP 76.25, 0.062 µg/mL (≈ 0.247 µM); in the experiment on S. aureus NEM14157, 0.016 µg/mL (≈ 0.0637 µM).

With `CN[C@H](CC(C)C)C(=O)N[C@H]1C(=O)N[C@@H](CC(N)=O)C(=O)N[C@H]2C(=O)N[C@H]3C(=O)N[C@H](C(=O)N[C@H](C(=O)O)c4cc(O)cc(O)c4-c4cc3ccc4O)[C@H](O)c3ccc(c(Cl)c3)Oc3cc2cc(c3O[C@@H]2O[C@H](CO)[C@@H](O)[C@H](O)[C@H]2O[C@H]2C[C@](C)(N)[C@H](O)[C@H](C)O2)Oc2ccc(cc2Cl)[C@H]1O` [Vancomycin, reference compound], the MIC came out at 1 µg/mL (≈ 0.69 µM) with S. aureus 1651 LRSA*; 1 µg/mL (≈ 0.69 µM) in the experiment on S. aureus 1652 LRSA; 8 µg/mL (≈ 5.52 µM) with S. aureus 2012 VISA (VISA); 4 µg/mL (≈ 2.76 µM) with S. aureus 2018 VISA* (VISA); 1 µg/mL (≈ 0.69 µM) in the experiment on S. aureus MRSA*; 0.5 µg/mL (≈ 0.345 µM) in the experiment with S. aureus USA300 MRSA*.

On to `CCc1ccc(Oc2cccnc2N)c(O)c1` [Example 21, 2-[(2-aminopyridin-3-yl)oxy]-5-ethylphenol], for which, in experiment [1], the IC50 came out at 69 nM. Further, the MIC in the experiment on E. coli CIP 76.24 was found to be 0.25 µg/mL (≈ 1.09 µM); in the experiment on S. aureus BAA39MDR, 0.25 µg/mL (≈ 1.09 µM); in the experiment on S. aureus CIP 76.25 it was 0.25 µg/mL (≈ 1.09 µM); with S. aureus NEM14157, 0.25 µg/mL (≈ 1.09 µM); with S. aureus 1651 LRSA* (Linezolid resistant S. aureus), 0.12 µg/mL (≈ 0.521 µM); in the experiment with S. aureus 1652 LRSA (Linezolid resistant S. aureus), 0.5 µg/mL (≈ 2.17 µM). The MIC turned out to be 0.12 µg/mL (≈ 0.521 µM) in the experiment with S. aureus 2012 VISA (VISA strain), 0.25 µg/mL (≈ 1.09 µM) with S. aureus 2018 VISA* (VISA strain), 0.12 µg/mL (≈ 0.521 µM) with S. aureus MRSA* (setting [2]) and 0.5 µg/mL (≈ 2.17 µM) with S. aureus USA300 MRSA* (setting [2]).
